Assay results as given in paper PMC5352051, “Identification of a novel Polo-like kinase 1 inhibitor that specifically blocks the functions of Polo-Box domain” (Oncotarget, 2016).

How the values were obtained:
[1] = tested on: A549 lung-carcinoma cells; assay: A549 xenograft in nude mice, tumor volume; assay type: in vivo; details: intratumoral injection 50 and 100 mg/kg, Wednesdays and Fridays, 5 weeks, vs DMSO
Protocol: Female athymic nude mice were injected with 2.0 × 10^7 A549 lung-carcinoma cells subcutaneously. After 14~20 days, when the tumor volumes reached 100~150 mm^3, animals were divided into treatment (T521; 50, 100 mg/kg) and control (DMSO) groups with ten mice in each group. T521 (0.2 g/mL) dissolved in DMSO was administered alone and mice were treated with T521 by intratumoral injection at the different injection points according to indicated dose on Wednesdays and Fridays for 5 weeks. Tumor volumes were determined with a caliper on Monday and Thursday during drug administration cycle. Tumor volume (mm^3) was calculated using the following equation: V=L×S^2×π/6, where L is the length and S is width of the tumor. The body weight of these mice was determined as an indicator of tolerability on the same days. Student's t-tests were performed for statistical evaluation among treatment and control groups. All mice were properly treated in accordance with the guidelines of the local animal committee.

Plk3 PBD = molecular target: T1, Plk3 PBD (Homo sapiens, UniProt Q9H4B4); assay: Fluorescence polarization assay, Plk3 PBD / FITC-labeled phosphopeptide; assay type: binding; details: Plk3 PBD
T1 construct: (326-603 aa), Plk2 (355-685 aa), and Plk3 (335-646 aa); GST (N); made in house; host or cells: E. coli Rosetta BL21(DE3)
T1 sequence (Q9H4B4 335-646): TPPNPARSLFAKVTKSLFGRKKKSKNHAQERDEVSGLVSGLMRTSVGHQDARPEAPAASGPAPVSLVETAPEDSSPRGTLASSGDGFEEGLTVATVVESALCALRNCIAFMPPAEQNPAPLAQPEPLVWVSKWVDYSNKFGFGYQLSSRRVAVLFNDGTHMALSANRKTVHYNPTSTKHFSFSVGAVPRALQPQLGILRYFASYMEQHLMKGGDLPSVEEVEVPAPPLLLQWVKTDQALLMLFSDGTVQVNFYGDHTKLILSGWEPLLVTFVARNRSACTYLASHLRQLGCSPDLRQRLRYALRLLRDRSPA
Protocol: FP assay was performed as follow. […] We calculated the percentage of inhibition for each sample as follows: Inhibition(%)=Negative−Sample/Negative−Positive×100%
We plotted the inhibition values and determined IC50 using GraphPad Prism5.0. Together with the FITC-labeled peptides used for Plk1 PBD as mentioned above, the following peptides were used for specificity assays, FITC-GPMQTSpTPKNG-OH (Plk2 PBD), FITC-GPLATSpTPKNG-OH (Plk3 PBD).

[2] = tested on: Plk1, Cyclin B1 and pHH-3 in HeLa cells; assay: Western blot of mitotic markers; assay type: cell-based, human; details: synchronized HeLa, indicated concentrations, 16 hrs
Protocol: HeLa cells were collected after trypsinization and lysed with RIPA buffer. Equal amount of proteins (30 μg/lane) were loaded, separated by 15% SDS-PAGE. After blocking with blocking buffer for 2 hrs at RT, the membrane was incubated with the following primary antibodies diluted in blocking buffer overnight at 4°C: anti-hPlk1 mouse monoclonal antibody (Cat# P5998; Sigma; 1:3000), anti-CyclinB1 rabbit polyclonal antibody (Cat# SAB4503501; Sigma; 1:2000), anti-pHH3 rabbit monoclonal antibody (Cat# 04-817; Millipore; 1:2000), anti-GAPDH rabbit polyclonal antibody (Cat# P30008; Abmart; 1:2000). The membrane was washed 3 times and then incubated with Horseradish Peroxidase-conjugated secondary antibodies for 1 hr at RT and visualized with ECL system (Millipore). The level of GAPDH was used as the loading control.

HeLa cells [3] = assay: Apoptosis assay, Annexin V/PI dual-staining; assay type: cell-based, human; details: exponentially growing HeLa, various concentrations, 24 hrs, vs DMSO
Protocol: For apoptosis assay, HeLa cells were seeded at 3.0×10^4 cells/well into 6-well plates and incubated overnight. Then exponentially growing HeLa cells were treated with T521 at the indicated concentrations for 24 hrs and Annexin V/PI dual-staining was carried out using a commercial apoptosis assay kit (Beijing 4A Biotech. Co., Ltd.). DMSO-treated cells were taken as control.

HeLa cells [4] = assay: Cell cycle analysis by flow cytometry (DNA content); assay type: cell-based, human; details: synchronized HeLa, 10 μM
Protocol: HeLa cells (1.0×10^5 cells/well) were synchronized at G1/S boundary by double-thymidine block and then released into various media with indicated reagents. For cell cycle analysis, HeLa cells were harvested at different time points, washed twice with PBS, fixed in ice-cold 70% ethanol for 30 min at 4°C, and incubated with 500 μL of Propidium Iodine (Sigma; 10 μg/mL) and RNase A (Sigma; 1 mg/mL) for 30 min at 37°C in the dark prior to flow cytometry analysis (FACScan, BD Biosciences).

Plk1-Bub1 interaction = molecular target: T2, Plk1-Bub1 interaction (Homo sapiens, UniProt P53350); assay: Co-immunoprecipitation (IP) assay in HeLa cells; assay type: cell-based; details: HeLa cells released from double-thymidine arrest, 5, 10, 15 μM, 10 hrs
T2 construct: endogenous in cells; host or cells: HeLa
T2 sequence (P53350 2-603 limits assumed): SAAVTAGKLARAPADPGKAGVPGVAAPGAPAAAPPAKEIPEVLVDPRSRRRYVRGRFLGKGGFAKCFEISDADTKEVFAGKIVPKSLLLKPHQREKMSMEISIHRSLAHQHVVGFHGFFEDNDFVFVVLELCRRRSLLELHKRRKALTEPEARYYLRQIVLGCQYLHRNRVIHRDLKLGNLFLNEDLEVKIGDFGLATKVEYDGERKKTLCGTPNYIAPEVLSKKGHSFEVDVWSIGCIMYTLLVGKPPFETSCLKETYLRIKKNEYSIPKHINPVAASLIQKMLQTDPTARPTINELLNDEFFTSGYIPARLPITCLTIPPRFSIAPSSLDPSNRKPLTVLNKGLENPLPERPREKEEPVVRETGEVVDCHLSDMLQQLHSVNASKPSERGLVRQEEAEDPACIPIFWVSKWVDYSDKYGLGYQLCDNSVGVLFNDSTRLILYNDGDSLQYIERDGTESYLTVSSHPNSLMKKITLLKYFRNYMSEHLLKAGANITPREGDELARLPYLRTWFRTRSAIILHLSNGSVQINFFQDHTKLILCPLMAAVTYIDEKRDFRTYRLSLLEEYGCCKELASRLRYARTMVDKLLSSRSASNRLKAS
Protocol: HeLa cells were synchronized in G1/S boundary by double-thymidine block as described, and then released into medium containing DMSO and T521 (5, 10, 15 μM) for 10 hrs. For Co-IP assay, rabbit polyclonal anti-Bub1 antibody (Cat# ab70372; Abcam) was coupled to Protein A-Agarose beads (Cat# sc-2001; Santa Cruz) at a concentration 100 μg/mL. Treated HeLa cells were lysed with RIPA buffer. After clearing by centrifugation, the lysate was incubated with the beads coupled to anti-Bub1 antibody for 2 hrs at 4°C. The beads were washed with the lysis buffer for three times. The proteins bound to the beads were dissolved in loading buffer and separated by 10% SDS-PAGE, and probed with the mouse monoclonal anti-hPlk1 antibody (Cat# P5998; Sigma; 1:3000) and rabbit polyclonal anti-Bub1 antibody (Cat# ab70372;Abcam; 1:2000), respectively.

## CCS(=O)(=O)c1oc(-c2ccc(F)cc2)nc1S(=O)(=O)c1ccccc1 [T521, 5-(ethylsulfonyl)-2-(4-fluorophenyl)-4-(phenylsulfonyl) oxazole]
[1]
  tumor volume: obvious reduction of tumor volume
Plk3 PBD; FP assay, 1 hr preincubation at RT, read-out: Apparent IC50
  IC50: > 500 µM
Plk3 PBD; concentration as high as 500 μM
  inhibition of binding of PBD to FITC-labeled phosphopeptide: little inhibition
[2]
  mitotic markers (Plk1, Cyclin B1, pHH-3) protein levels: accumulation of these mitotic markers
HeLa cells [3]
  cell population positive for Annexin V staining: increase of cell population positive for Annexin V staining
HeLa cells [4]; 16 hrs after release
  cells with 4C DNA content: about 40%
HeLa cells [4]; entire course (24 hrs)
  cells remaining in G2/M phase: At least 20%
Plk1-Bub1 interaction
  Plk1 protein level in Bub1 immunoprecipitates: clear decrease
